Data on one compound can be found in US20250026754A1, “SMALL MOLECULE INHIBITORS OF UBIQUITIN SPECIFIC PROTEASE 1 (USP1) AND USES THEREOF” (INSILICO MEDICINE IP LIMITED, priority 2021, published 2025).

SMILES strings stand for the structures.

This experiment deals with MDA-MB-436 cells. Kind of experiment: MDA-MB-436 breast cancer cell proliferation assay (CellTiter-Glo). The experiment is classed as cell-based. The settings on record: Homo sapiens, 168 h, 7 days. As to the method:
MDA-MB-436 cells were grown in Leibovitz's L-15 medium with 10 μg/ml insulin, 16 μg/ml glutathione, 10% FBS. Cells were passaged at subconfluence after trypsinization and maintained in incubators at 37° C. in a humidified atmosphere with 5% CO2.
Cell proliferation was determined using CellTiter-Glo® Luminescent Cell Viability Assay (Promega, #G7573). MDA-MB-436 cells were seeded in 384-well plates and allowed to attach for 24 h. Compounds were added into 384-well plate by ECHO, and incubated at 37 C° in a humidified atmosphere with 5% CO2. After 7 days, CellTiter-Glo was added into 384 well plates, contents were mixed on an orbital shaker at […] for 2 min before centrifuging the plate for 2 min at 1000 rpm. After incubation at RT for 30 min, luminescence was read on envision.
(Cellular ATP, detected with luciferase, serves as a proxy for viable cell number.)

For `COc1ncnc(C2CC2)c1-c1nn(C)c2c1CN(c1ccc(-n3nc(C(F)(F)F)cc3C)cn1)CC2` [Example 15, 3-(4-cyclopropyl-6-methoxypyrimidin-5-yl)-1-methyl-5-(5-(5-methyl-3-(trifluoromethyl)-1H-pyrazol-1-yl)pyridin-2-yl)-4,5,6,7-tetrahydro-1H-pyrazolo[4,3-c]pyridine], the IC50 (in general, the concentration that gives 50% inhibition) is 50 to 1000 nM.
